# Laboratory results reported in patent publication US20100255580A1, “Differentiation of Human Embryonic Stem Cells” (LIFESCCAN, INC., priority 2007, published 2010).
# Several values for one entry are separate records, joined by “and”; a condition that tells them apart may be missing. Equal entries are not always repeated.
# Tested on: human embryonic stem cell line H9
# Experiment: Cytokine array analysis of cell lysates and conditioned media
# Type: cell-based
# Design: key to BMP-4 expression / BMP-6 expression / EGF expression / FGF-6 expression / Fractalkine expression / GCP-2 expression / IL-3 expression / IL-4 expression / IL-6 expression / M-CSF expression / MIG expression / Amphiregulin expression: cytokine array signal, normalized and background-subtracted
# Experimental: The effect that Wnt-3a treatment has on cytokine expression was analyzed using a protein array. Cells of the human embryonic stem cell line H9 were cultured according to the methods described in Example 15. At passage 54, cells were differentiated in the presence of 100 ng/ml ActivinA+/−10 ng/ml Wnt3a for 2 days in 0.5% FBS DMEM/F12. Cells were subsequently cultured for an additional three days in 100 ng/mlActivin A and 2% FBS DMEM/F12. At the end of the 5th day, CXCR4 expression was determined by FACS for each treatment group.
# Cell lysates were prepared from cells of each treatment group, with a mammalian cell lysis kit (Sigma-Aldrich, MO). Conditioned media from each treatment group was collected and concentrated. Cytokine array analysis was completed using Cytokine Array panels provided by RayBiotech, GA (http://www.raybiotech.com/). Table VII lists cytokine, growth factor, and receptor expression following normalization of the data and background subtraction. For each panel, positive and negative controls are also included. Th data shown are two independent samples per cell treatment group (1,2).
substance,measurement,setting,value
Wnt-3a,1L-1beta expression,Cell conditioned media,316.59 and 278.30
same,1L-1ra expression,Cell conditioned media,354.23 and 581.75
same,Acrp30 expression,Cell conditioned media,"2,795.71 and 2,302.99"
same,AgRP expression,Cell conditioned media,651.26 and 482.21
same,Amphiregulin expression,Cell conditioned media,619.07 and 782.60
same,Angiogenin expression,Cell conditioned media,"57,442.48 and 54,969.04"
same,Angiopoietin-2 expression,Cell conditioned media,"65,959.24 and 71,664.21"
same,AxI expression,Cell conditioned media,610.40 and 748.34
same,BDNF expression,Cell conditioned media,770.08 and 715.86
same,BLC expression,Cell conditioned media,337.12 and 249.80
same,BMP-6 expression,Cell conditioned media,985.70 and 670.60
same,CK beta 8-1 expression,Cell conditioned media,42.78 and 75.44
same,CNTF expression,Cell conditioned media,787.19 and 541.51
same,EGF expression,Cell conditioned media,"23,331.57 and 22,768.53"
same,Eotaxin-2 expression,Cell conditioned media,"2,156.21 and 1,445.14"
same,Eotaxin-3 expression,Cell conditioned media,"2,140.81 and 1,480.35"
same,FGF-6 expression,Cell conditioned media,"3,283.94 and 2,519.78"
same,Flt-3 Ligand expression,Cell conditioned media,511.67 and 792.98
same,Fractalkine expression,Cell conditioned media,359.37 and 367.15
same,GCP-2 expression,Cell conditioned media,451.78 and 362.12
same,GDNF expression,Cell conditioned media,443.22 and 509.66
same,GM-CSF expression,Cell conditioned media,"1,808.82 and 1,446.82"
same,I-309 expression,Cell conditioned media,318.30 and 288.36
same,IFN-gamma expression,Cell conditioned media,"1,238.97 and 1,435.08"
same,IGF-I expression,Cell conditioned media,254.98 and 187.77
same,IGFBP-1 expression,Cell conditioned media,227.60 and 155.91
same,IGFBP-2 expression,Cell conditioned media,"42,215.53 and 43,934.33"
same,IGFBP-4 expression,Cell conditioned media,"18,988.34 and 13,380.14"
same,IL-1alpha expression,Cell conditioned media,"3,999.26 and 3,545.79"
same,IL-2 expression,Cell conditioned media,758.10 and 881.84
same,IL-3 expression,Cell conditioned media,"11,345.78 and 12,174.73"
same,IL-4 expression,Cell conditioned media,804.30 and 673.95
same,IL-5 expression,Cell conditioned media,"2,120.27 and 1,713.38"
same,IL-6 expression,Cell conditioned media,"9,774.82 and 9,991.93"
same,IL-10 expression,Cell conditioned media,"1,625.71 and 1,129.96"
same,IL-13 expression,Cell conditioned media,"2,522.42 and 1,807.27"
same,IL-15 expression,Cell conditioned media,"2,495.04 and 1,981.62"
same,IL-16 expression,Cell conditioned media,436.38 and 405.71
same,LIGHT expression,Cell conditioned media,"1,346.78 and 1,108.17"
same,Leptin expression,Cell conditioned media,"7,238.71 and 4,886.99"
same,M-CSF expression,Cell conditioned media,740.98 and 684.01
same,MCP-1 expression,Cell conditioned media,"2,015.89 and 1,567.53"
same,MCP-2 expression,Cell conditioned media,694.78 and 694.07
same,MCP-3 expression,Cell conditioned media,701.62 and 583.42
same,MCP-4 expression,Cell conditioned media,231.02 and 276.62
same,MIP-1-delta expression,Cell conditioned media,474.02 and 291.71
same,MIP-3-alpha expression,Cell conditioned media,208.78 and 184.41
same,NAP-2 expression,Cell conditioned media,371.35 and 343.68
same,NT-3 expression,Cell conditioned media,571.57 and 427.51
same,PARC expression,Cell conditioned media,474.02 and 363.80
same,PDGF-BB expression,Cell conditioned media,"2,635.37 and 2,005.09"
same,RANTES expression,Cell conditioned media,682.80 and 855.01
same,SCF expression,Cell conditioned media,"1,394.69 and 2,155.98"
same,SDF-1 expression,Cell conditioned media,326.85 and 616.95
same,TGF-beta 1 expression,Cell conditioned media,"1,827.65 and 1,849.18"
same,TGF-beta 3 expression,Cell conditioned media,294.34 and 343.68
same,TNF-alpha expression,Cell conditioned media,"2,609.70 and 2,167.71"
same,TNF-beta expression,Cell conditioned media,"1,701.01 and 1,637.94"
same,bFGF expression,Cell conditioned media,"1,226.99 and 1,241.09"
same,1L-1beta expression,Cell lysate,352.05 and 312.08
same,1L-1ra expression,Cell lysate,302.68 and 198.48
same,Acrp30 expression,Cell lysate,601.61 and 690.66
same,AgRP expression,Cell lysate,77.82 and 89.00
same,Angiogenin expression,Cell lysate,619.40 and 750.85
same,AxI expression,Cell lysate,88.59 and 139.03
same,BDNF expression,Cell lysate,763.51 and 951.45
same,BLC expression,Cell lysate,742.24 and 476.36
same,BMP-4 expression,Cell lysate,348.44 and 304.48
same,BMP-6 expression,Cell lysate,571.23 and 641.05
same,CK beta 8-1 expression,Cell lysate,22.48 and 21.54
same,CNTF expression,Cell lysate,"1,382.51 and 1,060.82"
same,EGF expression,Cell lysate,742.24 and 984.39
same,Eotaxin expression,Cell lysate,301.87 and 253.80
same,Eotaxin-3 expression,Cell lysate,934.12 and 847.56
same,Flt-3 Ligand expression,Cell lysate,857.45 and 795.19
same,Fractalkine expression,Cell lysate,792.02 and 456.51
same,GCP-2 expression,Cell lysate,593.71 and 538.86
same,GDNF expression,Cell lysate,436.75 and 444.68
same,GM-CSF expression,Cell lysate,"1,343.17 and 1,161.75"
same,I-309 expression,Cell lysate,708.52 and 743.25
same,IFN-gamma expression,Cell lysate,"1,202.67 and 1,037.60"
same,IGFBP-1 expression,Cell lysate,59.41 and 85.73
same,IGFBP-2 expression,Cell lysate,"2,671.90 and 2,414.72"
same,IGFBP-4 expression,Cell lysate,"4,459.85 and 4,173.19"
same,IL-1alpha expression,Cell lysate,"1,612.93 and 1,421.89"
same,IL-3 expression,Cell lysate,"2,119.94 and 1,497.48"
same,IL-4 expression,Cell lysate,625.42 and 638.94
same,IL-5 expression,Cell lysate,"1,245.23 and 1,167.24"
same,IL-10 expression,Cell lysate,"1,222.75 and 1,096.30"
same,IL-13 expression,Cell lysate,"1,486.89 and 1,407.96"
same,IL-15 expression,Cell lysate,"1,677.16 and 1,601.79"
same,IL-16 expression,Cell lysate,651.11 and 668.50
same,Leptin expression,Cell lysate,"1,234.39 and 1,091.65"
same,M-CSF expression,Cell lysate,852.63 and 867.83
same,MCP-1 expression,Cell lysate,"1,022.03 and 1,076.03"
same,MCP-3 expression,Cell lysate,"1,184.61 and 1,255.50"
same,MCP-4 expression,Cell lysate,"1,380.51 and 1,606.86"
same,MDC expression,Cell lysate,269.36 and 280.41
same,MIG expression,Cell lysate,"1,113.16 and 1,137.26"
same,MIP-1-delta expression,Cell lysate,491.75 and 322.22
same,MIP-3-alpha expression,Cell lysate,"1,602.09 and 1,399.93"
same,NT-3 expression,Cell lysate,316.73 and 275.76
same,PARC expression,Cell lysate,352.85 and 353.04
same,PDGF-BB expression,Cell lysate,517.84 and 597.56
same,RANTES expression,Cell lysate,724.98 and 637.25
same,SCF expression,Cell lysate,"1,152.50 and 1,021.13"
same,TARC expression,Cell lysate,372.93 and 343.33
same,TGF-beta 1 expression,Cell lysate,"1,426.67 and 1,240.30"
same,TNF-alpha expression,Cell lysate,"2,851.74 and 1,285.91"
same,TNF-beta expression,Cell lysate,"1,049.33 and 1,026.62"
same,bFGF expression,Cell lysate,"11,722.95 and 21,398.52"
same,"IGFBP-1, TGFbeta-1 and TGFbeta-3 in cell lysates",Wnt3a treated vs Activin A only,upregulated
same,"Angiogenin, IGFBP-1 and EGF in cell conditioned media",Wnt3 treated vs Activin A only,Noticeable upregulation
